For the experiment, the system named is ATP-dependent exonuclease. The experiment is described as follows: Coupled spectrophotometric assay: ADP formation coupled to NADH oxidation (PK/LDH), read at 340 nm. Format: biochemical. The settings on record: for Product inhibition: observed only upon >50% conversion of the substrates ATP and DNA; for Relative rate of ATP hydrolysis: alone. Here is the method: Standard curves were routinely generated by using 0, 2, 6, 10, 14 and 18 μL of 1 ng/μL substrate DNA. Eighty μl of the reaction mix was incubated with up to 20 μl of DNA and dH2 O (total volume of 100 μl) at 25° C. The reactions were quenched with 15 μl of 200 mM EDTA, pH 8.0/NaOH, following a 30 or 40 min incubation. The reactions were read at 340 nm.
The 10× assay buffer contained tris-acetate (pH 7.8/acetate at 25° C.); 330 mM, potassium acetate; 660 mM, magnesium acetate; 100 mM, dithiothreitol; 5 mM, Triton X-100, 0.1%. The reaction mix was prepared as follows, 10× buffer; 0.250 ml, NADH; 0.250 ml (0.64 μmoles), PEP; 25.0 μl (2.4 μmoles), ATP; 75.0 μl (2.5 μmoles), H2 O; 1.305 ml, PK/LDH enzyme mix; 75.0 μl, ATP dependent DNAase; 20.0 μl (200 units).
An enzyme kinetics program ENZFITTER (Elsevier Biosoft) was used to generate a plot (A340 versus ng DNA) of the standard. The slope was calculated following a regression analysis. A similar plot of the sample (A340 versus μL DNA) was also prepared. The slope determined from the regression analysis was used to calculate the concentration of linear DNA in the sample.
A reliable method for quantification requires that the concentration of products formed in the reaction is linear with time, concentrations of enzyme and of substrate. In the present assay, ATP hydrolysis was linear with time. The experiments that generated the data shown in FIG. 2 are a coupled spectrophotometric assay in which the linear DNA content was varied from 2 to 20 ng. Twenty μL aliquots were removed at various times (10, 20, 30 & 60 min), and quenched by mixing with 4 μl of 200 mM EDTA as described in Materials and Methods. The samples were further diluted to 100 μl with water, to facilitate determination of optical density. ATP hydrolysis was linear with time and at least up to 40% substrate converted to products (<0.4 mM ADP and Pi). ADP formation was also linear with several enzyme concentrations. The experiments that generated the data shown in FIG. 3 are a coupled assay system in which the amount of enzyme added to the reaction was varied. The enzyme was diluted using 1× reaction buffer and left on ice prior to its addition to the reaction mixture. The reaction was quenched at 15 min, with EDTA as described in Materials and Methods. ADP formation was linear with several enzyme concentrations at least until 0.36 mM ADP and Pi was formed in the reaction. The reaction rates were slower when ~60% of the substrates (100 ng DNA and 1 mM ATP) were converted to products. […] The Vmax was 30 nmoles/min/mg enzyme. In the experiments that generated the data in FIG. 4, the reaction was carried out in a coupled assay as described in the Methods. The reactions were initiated by the addition of enzyme. Following initiation of the 500 μl reaction; 100 μl samples were withdrawn at 1, 2, 5 and 10 min and quenched with 10 μl of 200 mM EDTA. Initial velocities were derived from the reaction rate, obtained by linear regression analysis of absorbances at 340 nm recorded at various times during the reaction. […] The data reported in FIG. 5A is replot of FIG. 2 as a function of linear DNA content in the reaction mixture. In the experiments which generated these date, the 20 μl aliquots were quenched with EDTA as described above, at various times of incubation. […] The results are consistent with the potential use of this enzyme to quantify linear DNA content.

Setting [1] is: 50 ng linear DNA as substrate, +10 mM EDTA or +1 mM citrate.

As for `Nc1ncnc2c1ncn2[C@@H]1O[C@H](COP(=O)(O)OP(=O)(O)O)[C@@H](O)[C@H]1O` [ADP, adenosine diphosphate], the Product inhibition entry is given as “Product inhibition”.
Turning to `O=C(O)CN(CCN(CC(=O)O)CC(=O)O)CC(=O)O` [EDTA], the “Relative rate of ATP hydrolysis” value under setting [1] is recorded as 0.008. The “Effect on the enzymatic reaction” value (at molar equivalent to the divalent cation used in the assay) is “quenched the enzymatic reaction”.
As for `O=P(O)(O)O` [Pi, inorganic phosphate], the Product inhibition result is given as “Product inhibition”.
Regarding `O=C(O)CC(O)(CC(=O)O)C(=O)O` [citrate], the “Relative rate of ATP hydrolysis” value under setting [1] came to 0.686. Moreover, the “Enhancement of enzymatic activity” value (citrate at 50 μM) is listed as about 50%. Besides, the “Inhibition of ATP hydrolytic activity” value (citrate at 1 mM in the presence of 10 mM Mg++) worked out at 30%.
Consider `CCO` [ethanol], for which the “Relative rate of ATP hydrolysis” value (5 ng linear DNA as substrate, +200 ng t-RNA, +500 ng circular DNA or +5% ethanol) came to 0.86; the “Relative rate of ATP hydrolysis” value (10 ng linear DNA as substrate, +200 ng t-RNA, +500 ng circular DNA or +5% ethanol) is 1.78; the “Relative rate of ATP hydrolysis” value (15 ng linear DNA as substrate, +200 ng t-RNA, +500 ng circular DNA or +5% ethanol) worked out at 2.64. Also, the “Effect on enzymatic activity” value (concentrations beyond 4% ethanol) is reported as “severely inhibited”.

The values are drawn from patent publication US6083692A, “Method of detecting the presence and measuring the quantity of biological polymers” (American Home Products Corporation, priority 1996, dated 2000).
